Test results: paper PMC11969024, “Development of chemokine network inhibitors using combinatorial saturation mutagenesis” (Communications Biology, 2025)

Tested on: panel of 22 biotinylated chemokines
Assay: Saturation (NNK) mutagenesis phage-display selection against biotinylated chemokines, enrichment by NGS
Assay type: binding, human
Settings: two-sided Dunnett's test; for log2E compared to parental HD2, CXnC chemokines: 7 CXnC chemokines
Description: 81-mer mutant oligonucleotides replacing NNK at each of the 16 peptide encoding residues were designed with the sequence arms 5’-[…], and […]-3’ at respective ends to enable amplification and cloning. Oligonucleotides (Genscript) were individually amplified and cloned into plasmid prSTOP4Nsi (described in[37]). prSTOP4Nsi was amplified using primers (Sigma): […]
Oligonucleotides were amplified using primers (Sigma): oligo_fwd: 5’-[…] and oligo_rev2: 5’-[…]. The PCR products were cloned into prSTOP4Nsi plasmid using NEB Builder HiFi Assembly (E5520, NEB) following instructions of the manufacturer. The vector pool was used to transform electrocompetent ElectroMAX™ DH5α-E™ cells (11319019, Invitrogen). Plasmid DNA was harvested by MaxiPrep (GeneJet Plasmid Maxiprep Kit (K0491, Thermo Scientific)). DNA was transformed into SS320 phage display electrocompetent cells (60512, Lucigen), following the manufacturer’s protocol. Following electroporation, cells were resuspended in 950 μL recovery media and transferred to 50 mL Falcon tubes. 100 μL 10^11 CFU/mL M13KO7 helper phage (N0315S, NEB) was added, and tubes shaken at 37 °C, 220 RPM, 1 h. 1 mL recovery culture was added to 2YT medium containing +50ug/mL carbenicillin (C9231, Sigma) and 25ug/mL kanamycin (K1377, Sigma), and grown overnight at 37 °C, 220 RPM. Phage was precipitated from culture supernatant by adding 22.5 mL of supernatant to 4.5 mL 20% PEG 8000 (89510, Sigma)/2.5 M NaCl (S9625, Sigma), incubating on ice for 30 min, and centrifuging at 12857 g, 4 °C, 10 min. The phage pellet was resuspended in 1 mL of PBT (PBS (P4417, Sigma), BSA (A7030, Sigma) 0.20%, Tween 20 (P1379, Sigma) 0.05%). Undissolved particulate matter was removed by centrifugation at 15871 g, 4 °C, 10 min. Glycerol (G5516, Sigma, 10% final (v/v) was added, and aliquots stored at −80 °C. A schematic of phage-display library construction is provided in Supplementary Fig. 12.
Phage display screening was performed as described. Experiments were performed in 96-well plates (Greiner Bio-One, 655180). Biotinylated chemokines or complement C5A (1μg, Almac or Protein Foundry) were incubated overnight at 4 °C with shaking at 250 RPM with 5μl streptavidin-coated magnetic beads (Dynabeads™ M-280 Streptavidin, Invitrogen, 11205D) in 100 μl PBS. Chemokine-bound beads were blocked for two hours in 200μl blocking buffer (PBS (phosphate-buffered saline, Sigma, P4417) + 0.2% BSA (bovine serum albumin, Sigma, A7030) with shaking at 250 RPM. Phage library (100μL, 10^10 CFU/mL) was bound to blocked beads for two hours at room temperature with shaking at 250 RPM. Beads were washed 15 times with PT buffer (PBS + 0.05% Tween 20 (Sigma, P1379)) to remove unbound phage then transferred to a fresh plate. Beads were incubated with 100μL phage-resistant Omnimax E. coli (Invitrogen, A10469) at optical density (OD600) 0.6-0.8, shaken at 37 °C for 30 min. Following this 10 µL M13K07 helper phage (NEB, N0315S, final concentration 10^10 CFU/mL) was added and shaken at 37 °C for 45 min. Cells were transferred to 1 mL 2YT medium (at pH7, MP Biomedicals™, 113012031, supplemented with 150 µg/mL carbenicillin (Sigma, C9231) and 75 µg/mL kanamycin (Sigma, K1377) in a 96-deep well block with V-bottom (Corning, CLS3960) and grown with overnight shaking at 37 °C, 200 RPM. Plates were either centrifuged at 2000g (4 °C, 30 min) or transferred to screw cap tubes and pelleted by centrifugation at 4000 g and 4 °C for 15 min. 540 µL of supernatant was transferred to a new 96-deep well plate, 60 µL of 10×PBT (10×PBS + 2% BSA + 0.5% Tween 20) added and stored at 4 °C for subsequent rounds. Phage display was carried out for three rounds. A schematic of phage-display library screening is provided in Supplementary Fig. 12.
We amplified inserts from the input library and from the selected phage population directly from phage by PCR using primers: 5’-[…] and 5’-[…] (Life Technologies). […]

Sequence	log2E compared to parental HD2, CXnC chemokines	log2E compared to parental HD2, all chemokines (three selection rounds, 22 chemokines)
EEDDWTAYAPLTCYFT [HD2Y5W, HD2 point mutant]	significant improvement	
EEDDYWAYAPLTCYFT [HD2T6W, HD2 point mutant]	significant improvement	significantly improved
